As a reminder, the IC50 is the point on the concentration scale where inhibition reaches its midpoint.

In one experiment the target is human P2X7 (Homo sapiens (Human), UniProt Q99572). As to the kind of experiment: P2X7 antagonism in human PBMCs (IL-1β release after LPS + Bz-ATP, ELISA). The experiment is classed as cell-based. (ELISA stands for enzyme-linked immunosorbent assay.)
The next experiment has as its target rat P2X7 (Rattus norvegicus (Rat), UniProt Q64663). As to the kind of experiment: Ca2+ flux (FLIPR) in 1321N1 cells expressing recombinant rat P2X7.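 Further: Calcium-4 dye fluorescence change read 180 s after agonist addition, with cells preincubated 30 min with compound and dye in 96-well plates.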 The experiment is classed as cell-based.
Where [1] appears, read: human PBMCs, test compound 10 μM.
[2] abbreviates: 1321N1 cells, recombinant rat P2X7, 250 μM BzATP.
Setting [3] is: 10 μM test compound, human PBMCs, LPS + Bz-ATP.

human P2X7, sequence (Q99572 whole entry): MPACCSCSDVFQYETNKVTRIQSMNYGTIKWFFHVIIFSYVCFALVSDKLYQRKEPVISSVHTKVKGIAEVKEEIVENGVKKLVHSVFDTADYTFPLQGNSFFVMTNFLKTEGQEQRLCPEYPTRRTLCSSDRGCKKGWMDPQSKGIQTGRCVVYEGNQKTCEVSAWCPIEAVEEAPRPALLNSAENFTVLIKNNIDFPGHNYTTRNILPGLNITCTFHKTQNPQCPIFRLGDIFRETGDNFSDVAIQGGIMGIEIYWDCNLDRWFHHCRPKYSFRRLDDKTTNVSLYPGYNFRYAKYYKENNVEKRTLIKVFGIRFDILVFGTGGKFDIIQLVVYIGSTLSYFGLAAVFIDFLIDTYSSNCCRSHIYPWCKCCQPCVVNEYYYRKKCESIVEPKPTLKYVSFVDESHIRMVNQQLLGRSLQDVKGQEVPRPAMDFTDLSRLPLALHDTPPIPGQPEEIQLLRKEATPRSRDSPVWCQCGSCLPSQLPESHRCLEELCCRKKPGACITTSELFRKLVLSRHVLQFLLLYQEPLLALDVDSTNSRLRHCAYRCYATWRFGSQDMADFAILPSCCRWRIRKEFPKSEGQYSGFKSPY
rat P2X7, sequence (Q64663 whole entry): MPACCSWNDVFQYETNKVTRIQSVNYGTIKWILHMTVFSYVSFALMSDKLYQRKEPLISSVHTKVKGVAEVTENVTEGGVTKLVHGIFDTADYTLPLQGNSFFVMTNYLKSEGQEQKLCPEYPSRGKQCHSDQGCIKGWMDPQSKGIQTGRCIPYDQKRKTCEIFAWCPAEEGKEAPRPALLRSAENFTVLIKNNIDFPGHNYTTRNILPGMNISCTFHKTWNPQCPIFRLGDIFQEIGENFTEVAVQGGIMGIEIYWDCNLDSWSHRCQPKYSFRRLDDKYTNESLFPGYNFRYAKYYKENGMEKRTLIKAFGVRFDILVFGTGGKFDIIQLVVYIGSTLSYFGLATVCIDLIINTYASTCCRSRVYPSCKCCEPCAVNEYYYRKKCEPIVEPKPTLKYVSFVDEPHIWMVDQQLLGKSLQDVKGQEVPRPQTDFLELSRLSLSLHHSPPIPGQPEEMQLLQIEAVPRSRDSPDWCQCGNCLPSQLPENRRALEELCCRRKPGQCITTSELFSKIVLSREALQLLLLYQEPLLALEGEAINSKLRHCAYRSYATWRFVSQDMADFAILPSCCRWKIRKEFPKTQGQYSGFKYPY
Protocol for human P2X7: P2X7 Antagonism in Human Peripheral Blood Mononuclear Cells (PBMCs) and Human Whole Blood.
Human blood was collected using a blood donor program. PBMCs were isolated from blood using a Ficoll density gradient technique. Briefly, blood was laid on Ficoll solution and centrifuged at RT for 20 minutes at 2000 rpm. The buffy layer (between red blood cells and plasma) was carefully collected by aspiration, washed with PBS and centrifuged again at 1500 rpm for 15 minutes. The resulting cell pellet was washed and plated on 96 well-plates for experiments. For the Human Whole Blood experiments, 150 μl of human blood was platted on 96 well-plates. Lipopolysaccharide (LPS) (30 ng/ml) was added to each well and incubated for 1 hour. Test compounds were then added and incubated for 30 minutes. The P2X7 agonist, 2′(3′)-O-(4-benzoylbenzoyl) adenosine 5′ triphosphate (Bz-ATP) was then added at a final concentration of 0.5 mM (PBMC) or 1 mM (blood). Cells were incubated for an additional 1.5 hours. At that point, supernatant was collected and stored for IL-1β assay using manufacturer's protocol for enzyme-linked immunosorbent assay (ELISA). Data was expressed as percent control, where control is defined as the difference in IL-1β release in LPS+Bz-ATP samples and LPS only samples. Data was plotted as response (% control) versus concentration to generate IC50 values. […] Data are analyzed and graphed on Graphpad Prism 5. For analysis, each concentration point is averaged from triplicate values and the averaged values are plotted on Graphpad Prism.
Protocol for rat P2X7: P2X7 Antagonism in Recombinant Human P2X7 Cells or Recombinant Rat P2X7 Cells: (a) Ca^2+ Flux and (b) Radioligand Binding
1321N1 cells expressing the recombinant human or rat P2X7 channel was cultured in HyQ DME/(HyClone/Dulbecco's Modified Eagle Medium) high glucose supplemented with 10% Fetal Bovine Serum (FBS) and appropriate selection marker. Cells were seeded at a density of 25000 cells/well (96-well clear bottom black walled plates) in 100 μl volume/well. On the day of the experiment, cell plates were washed with assay buffer, containing (in mM): 130 NaCl, 2 KCl, 1 CaCl2, 1 MgCl2, 10 HEPES, 5 glucose; pH 7.40 and 300 mOs. After the wash, cells were loaded with the Calcium-4 dye (Molecular Device) and incubated in the dark for 60 minutes. Test compounds were prepared at 250× the test concentration in neat DMSO. Intermediate 96-well compound plates were prepared by transferring 1.2 μL of the compound into 300 μL of assay buffer. A further 3× dilution occurred when transferring 50 μL/well of the compound plate to 100 μL/well in the cell plate. Cells were incubated with test compounds and dye for 30 minutes. […] The fluorescence change was measured 180 seconds after adding the agonist.

With `Cc1nc(-n2nnc3c2CCN(C(=O)c2cccc(C(F)(F)F)c2Cl)C3C)ncc1F` (single isomer, unassigned) [Example 306, (S*)-(2-chloro-3-(trifluoromethyl)phenyl)(1-(5-fluoro-4-methylpyrimidin-2-yl)-4-methyl-6,7-dihydro-1H-[1,2,3]triazolo[4,5-c]pyridin-5(4H)-yl)methanone], the “PBMC 10 μM (% control)” value on human P2X7 (setting [1]) came out at 2.5 % control; on human P2X7 (test compound 10 μM, LPS 30 ng/ml + 0.5 mM Bz-ATP), 2.5 % control. In addition, the IC50 at rat P2X7 (250 μM BzATP, Calcium-4 dye) was found to be 5980 nM; at rat P2X7 (setting [2]) it was 5980 nM.
Take `Cc1ccnc(-n2nnc3c2CCN(C(=O)c2ccnc(C(F)(F)F)c2F)[C@@H]3C)c1` (single isomer, unassigned) [Example 356, (R*)-(3-fluoro-2-(trifluoromethyl)pyridin-4-yl)(4-methyl-1-(4-methylpyridin-2-yl)-6,7-dihydro-1H-[1,2,3]triazolo[4,5-c]pyridin-5(4H)-yl)methanone]: the “PBMC 10 μM (% control)” value on human P2X7 (setting [1]) was −5.9 % control. Further, at rat P2X7 (setting [2]), the IC50 stood at 120 nM.
For `Cc1ccnc(-n2nnc3c2CCN(C(=O)c2ccnc(C(F)(F)F)c2F)[C@H]3C)c1` (single isomer, unassigned) [Example 357, (S*)-(3-fluoro-2-(trifluoromethyl)pyridin-4-yl)(4-methyl-1-(4-methylpyridin-2-yl)-6,7-dihydro-1H-[1,2,3]triazolo[4,5-c]pyridin-5(4H)-yl)methanone] the same measures were 42.4 % control and 16200 nM.
Take `Cc1cc(-n2nnc3c2CCN(C(=O)c2cccc(C(F)(F)F)c2Cl)[C@@H]3C)ncc1F` (single isomer, unassigned) [Example 382, (R*)-(2-chloro-3-(trifluoromethyl)phenyl)(1-(5-fluoro-4-methylpyridin-2-yl)-4-methyl-6,7-dihydro-1H-[1,2,3]triazolo[4,5-c]pyridin-5(4H)-yl)methanone]: at human P2X7 (setting [1]), the “PBMC 10 μM (% control)” value is listed as −2.7 % control. Moreover, the IC50 on rat P2X7 (setting [2]) is 56.6 nM.
In the same order, the values of `Cc1cccc(-n2nnc3c2CCN(C(=O)c2cccc(C(F)(F)F)c2F)[C@H]3C)n1` (single isomer, unassigned) [Example 387, (S*)-(2-fluoro-3-(trifluoromethyl)phenyl)(4-methyl-1-(6-methylpyridin-2-yl)-6,7-dihydro-1H-[1,2,3]triazolo[4,5-c]pyridin-5(4H)-yl)methanone] are 8.4 % control and 161 nM.
As to `CC1c2ncn(-c3cnccn3)c2CCN1C(=O)c1cccc(C(F)(F)F)c1F` (stereo not drawn) [Example 14, (2-Fluoro-3-(trifluoromethyl)phenyl)(4-methyl-1-(pyrazin-2-yl)-6,7-dihydro-1H-imidazo[4,5-c]pyridin-5(4H)-yl)methanone], at rat P2X7 (setting [2]), the IC50 was 122 nM.
Turning to `CC1c2ncn(-c3ncccn3)c2CCN1C(=O)c1cccc(C(F)(F)F)c1Cl` (stereo not drawn) [Example 23, (2-Chloro-3-(trifluoromethyl)phenyl)(4-methyl-1-(pyrimidin-2-yl)-6,7-dihydro-1H-imidazo[4,5-c]pyridin-5(4H)-yl)methanone], at human P2X7 (setting [1]), the “PBMC 10 μM (% control)” value is reported as 6.4 % control. On rat P2X7 (setting [2]), the IC50 was found to be 113 nM.
Turning to `CCOC(=O)C1c2ncn(-c3ccccc3)c2CCN1C(=O)c1cccc(Cl)c1Cl` (stereo not drawn) [Example 27, Ethyl 5-(2,3-dichlorobenzoyl)-1-phenyl-4,5,6,7-tetrahydro-1H-imidazo[4,5-c]pyridine-4-carboxylate], the IC50 on rat P2X7 (setting [2]) came to 2810 nM.
Still for that read-out and setting: the result for `CN(C)CC1c2ncn(-c3ccccn3)c2CCN1C(=O)c1cccc(C(F)(F)F)c1Cl` (stereo not drawn) [Example 31, 1-(5-{[2-Chloro-3-(trifluoromethyl)phenyl]carbonyl}-1-pyridin-2-yl-4,5,6,7-tetrahydro-1H-imidazo[4,5-c]pyridin-4-yl)-N,N-dimethylmethanamine] reads 333 nM.
`O=C(c1cccc(C(F)(F)F)c1Cl)N1CCc2c(ncn2-c2ccccn2)C1CF` (stereo not drawn) [Example 32, (2-Chloro-3-(trifluoromethyl)phenyl)(4-(fluoromethyl)-1-(pyridin-2-yl)-6,7-dihydro-1H-imidazo[4,5-c]pyridin-5(4H)-yl)methanone]: the “PBMC 10 μM (% control)” value at human P2X7 (setting [1]) was determined as 1.9 % control. Besides, on rat P2X7 (setting [2]), the IC50 was 47.5 nM.
In the case of `CN(C)C(=O)C1c2ncn(-c3ccccn3)c2CCN1C(=O)c1cccc(C(F)(F)F)c1Cl` (stereo not drawn) [Example 34, 5-{[2-Chloro-3-(trifluoromethyl)phenyl]carbonyl}-N,N-dimethyl-1-pyridin-2-yl-4,5,6,7-tetrahydro-1H-imidazo[4,5-c]pyridine-4-carboxamide], the IC50 on rat P2X7 (setting [2]) came out at 279 nM.
Regarding `CC1(C)c2ncn(-c3ccccc3)c2CCN1C(=O)c1cccc(C(F)(F)F)c1Cl` [Example 53, 5-{[2-Chloro-3-(trifluoromethyl)phenyl]carbonyl}-4,4-dimethyl-1-phenyl-4,5,6,7-tetrahydro-1H-imidazo[4,5-c]pyridine], on human P2X7 (human PBMCs, test compound 1 μM), the “PBMC 1 μM (% control)” value worked out at 99.0 % control. Moreover, the IC50 at rat P2X7 (setting [2]) was 3150 nM.
In the case of `O=C(c1cccc(C(F)(F)F)c1Cl)N1CCc2c(nnn2-c2ccccn2)C1` [Example 63, 5-{[2-Chloro-3-(trifluoromethyl)phenyl]carbonyl}-1-pyridin-2-yl-4,5,6,7-tetrahydro-1H-[1,2,3]triazolo[4,5-c]pyridine], on rat P2X7 (setting [2]), the IC50 was 1450 nM.
On to `CC1c2ncn(-c3ccc(F)cn3)c2CCN1C(=O)c1cccc(C(F)(F)F)c1F` (stereo not drawn) [Example 262, (2-fluoro-3-(trifluoromethyl)phenyl)(1-(5-fluoropyridin-2-yl)-4-methyl-6,7-dihydro-1H-imidazo[4,5-c]pyridin-5(4H)-yl)methanone], for which the “PBMC 10 μM (% control)” value at human P2X7 (setting [1]) is −3.6 % control. The IC50 on rat P2X7 (setting [2]) worked out at 3470 nM.
For `Cc1ccnc(-n2nnc3c2CCN(C(=O)c2ccnc(C(F)(F)F)c2F)C3C)c1` (stereo not drawn) [Example 355, (3-fluoro-2-(trifluoromethyl)pyridin-4-yl)(4-methyl-1-(4-methylpyridin-2-yl)-6,7-dihydro-1H-[1,2,3]triazolo[4,5-c]pyridin-5(4H)-yl)methanone] the same measures were −2.0 % control and 394 nM.
With `CC(C)n1ccc(-n2nnc3c2C[C@H](C)N(C(=O)c2ccnc(C(F)(F)F)c2F)C3)n1` [Example 418, (S)-(3-fluoro-2-(trifluoromethyl)pyridin-4-yl)(1-(1-isopropyl-1H-pyrazol-3-yl)-6-methyl-6,7-dihydro-1H-[1,2,3]triazolo[4,5-c]pyridin-5(4H)-yl)methanone], at human P2X7 (setting [3]), the “PBMC 10 μM (% control)” value was 97.6 % control.
Same read-out and setting: the result for `C[C@H]1Cc2c(nnn2-c2ccsc2)CN1C(=O)c1cccc(C(F)(F)F)c1Cl` [Example 420, (S)-(2-chloro-3-(trifluoromethyl)phenyl)(6-methyl-1-(thiophen-3-yl)-6,7-dihydro-1H-[1,2,3]triazolo[4,5-c]pyridin-5(4H)-yl)methanone] reads 0.0 % control; that for `C[C@H]1Cc2c(nnn2-c2ncc(O)cn2)CN1C(=O)c1ccnc(C(F)(F)F)c1F` [Example 429, (S)-(3-fluoro-2-(trifluoromethyl)pyridin-4-yl)(1-(5-hydroxypyrimidin-2-yl)-6-methyl-6,7-dihydro-1H-[1,2,3]triazolo[4,5-c]pyridin-5(4H)-yl)methanone], 2.3 % control.

For the origin of these results see patent US10112937B2, “P2X7 modulators and methods of use” (Janssen Pharmaceutica NV, priority 2013, dated 2018).
